Test in all cases: inhibition of tumour cell growth, NCI panel, 48 h
The test system of assay [1] is SF-539 CNS.
The test system of assay [2] is UO-31 renal.
The subject of assay [3] is NCI-H460 lung.
Assay [4] deals with DMS 114 small cell lung.
Assay [5] has as its system SR leukemia.
Assay [6] has as its system M14 melanoma.
The test system of assay [7] is UACC-257 melanoma.
Assay [8] has as its system 786-0 renal.
The test system of assay [9] is OVCAR-5 ovarian.
For assay [10], the system named is COLO 205 colon.
In assay [11] the test system is MOLT-4 leukemia.
Assay [12] relates to SF-268 CNS.
Assay [13] relates to HCT-116 colon.
Assay [14] has as its system UACC-62 melanoma.

Structures are written as SMILES.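 In this assay, cells in 96-well plates receive the compound at five concentrations for 48 hours. Endpoints are linearly interpolated between the surrounding concentrations. At the TGI there is no net growth.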

We go through six compounds from PubChem BioAssay (NCI).

For the compound `CC(=O)C(CN(C)Cc1ccccc1)C(c1ccccc1)c1c(O)c2ccccc2oc1=O` (centres undefined), the TGI in [1] was above 100 µM; in assay [2], 83.7 µM; in assay [3], above 100 µM; in assay [4] it was above 100 µM; in [5] it was above 100 µM; in assay [6], above 100 µM. For the same compound, the TGI in assay [7], in assay [8], in [9], in [10], in [11] and in assay [12] was above 100 µM each time. For the same compound, the TGI in assay [13] and in assay [14] was above 100 µM throughout.
`O=S(=O)(c1ccccc1)n1cnc(CCc2ccccc2)n1`: the TGI in [1], in [2], in assay [3], in assay [4], in assay [5] and in assay [6] was above 100 µM each time. Besides, the TGI in [7], in assay [8], in assay [9], in assay [10], in assay [11] and in assay [12] was above 100 µM each time. The TGI in assay [13] and in [14] was above 100 µM throughout.
For the compound `COc1ccccc1NC(=O)CC(=O)n1nc(-c2ccccc2)c(N=Nc2ccccc2[N+](=O)[O-])c1-c1ccccc1`, the TGI in assay [1], in assay [2], in [3], in [4], in assay [5] and in assay [6] was above 100 µM throughout. For the same compound, the TGI in assay [7], in [8], in [9], in assay [10], in assay [11] and in assay [12] was above 100 µM throughout. The TGI in assay [13] and in [14] was above 100 µM each time.
Turning to `CC1(Br)S(=O)(=O)OCCOS1(=O)=O`, the TGI in [1], in [2], in assay [3], in assay [4], in assay [5] and in [6] was above 100 µM throughout. In addition, the TGI in [7], in [8], in assay [9], in [10], in assay [11] and in assay [12] was above 100 µM in each case. In addition, the TGI in assay [13] and in [14] was above 100 µM each time.
In the case of `C=CC(Br)(CBr)CCC(Br)C(C)(C)Br` (centres undefined), the TGI in assay [1] came out at 29.9 µM; in assay [2] it was 28.8 µM; in assay [3], 23.4 µM; in assay [4] it was 24.6 µM; in assay [5], 21.5 µM; in [6], 28.3 µM. Moreover, the TGI in assay [7] was found to be 27.6 µM; in assay [8], 25.6 µM; in assay [9] it was 33.2 µM; in assay [10], 28.8 µM; in assay [11], 35.8 µM; in assay [12], 32.3 µM. The figures for the TGI in [13] and in [14] were 28.3 µM and 24.6 µM, respectively.
Regarding `Cc1ccc(S(=O)(=O)C(C#N)c2nc3ccccc3nc2N2CCOCC2)cc1` (centres undefined), the TGI in [1] was above 100 µM; in [2], above 100 µM; in assay [3], 39.7 µM; in [4] it was 49.5 µM; in [5], above 100 µM; in assay [6], above 100 µM. For the same compound, the TGI is above 100 µM in assay [7]; above 100 µM in assay [8]; above 100 µM in assay [9]; above 100 µM in [10]; 58.7 µM in [11]; 71.1 µM in [12]. Further, the TGI in [13] was determined as 38.4 µM; in [14], 28.5 µM.
